ChEMBL document CHEMBL1155134, “Structural basis for the potent calpain inhibitory activity of peptidyl alpha-ketoacids” (J Med Chem, 2008)
pKi: −log10 of the molar value. Residues, ends and D or L forms follow the SMILES beside them. *: point of attachment. Cbz = O=C(OCc1ccccc1)*

Target: T1, Calpain-1 catalytic subunit (Sus scrofa, UniProt P35750)
T1 sequence (P35750 whole entry): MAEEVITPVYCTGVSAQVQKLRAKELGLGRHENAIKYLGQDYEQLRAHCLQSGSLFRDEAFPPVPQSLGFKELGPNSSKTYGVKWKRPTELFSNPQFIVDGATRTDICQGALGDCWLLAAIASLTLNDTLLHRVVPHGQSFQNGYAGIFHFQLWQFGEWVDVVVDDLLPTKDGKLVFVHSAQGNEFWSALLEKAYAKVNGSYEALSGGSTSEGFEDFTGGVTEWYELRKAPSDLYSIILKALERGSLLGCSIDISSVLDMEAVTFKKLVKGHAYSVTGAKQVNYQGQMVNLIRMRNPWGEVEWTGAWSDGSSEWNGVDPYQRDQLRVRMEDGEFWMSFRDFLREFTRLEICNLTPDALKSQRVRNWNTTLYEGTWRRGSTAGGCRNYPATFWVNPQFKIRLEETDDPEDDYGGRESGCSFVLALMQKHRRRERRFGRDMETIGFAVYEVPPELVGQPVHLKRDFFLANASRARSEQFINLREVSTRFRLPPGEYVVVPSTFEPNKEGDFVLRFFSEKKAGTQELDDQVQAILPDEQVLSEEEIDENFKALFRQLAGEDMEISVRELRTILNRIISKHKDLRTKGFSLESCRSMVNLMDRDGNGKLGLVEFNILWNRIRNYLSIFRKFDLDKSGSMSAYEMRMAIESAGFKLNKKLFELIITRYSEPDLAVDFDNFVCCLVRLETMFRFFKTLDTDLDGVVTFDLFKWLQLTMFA
Test: Inhibition of pig erythrocyte mu-calpain by fluorometric assay

SMILES	pKi
CC(C)C[C@H](NC(=O)CC1c2ccccc2-c2ccccc21)C(=O)NC(Cc1ccccc1)C(=O)C(=O)O (mixture of isomers)	8.10
COC(=O)C(=O)C(Cc1ccccc1)NC(=O)[C@H](CC(C)C)NC(=O)CCC1CCCCC1 (mixture of isomers)	5.98
CC(C)C[C@H](NC(=O)CCC1CCCCC1)C(=O)NC(Cc1ccccc1)C(=O)C(=O)O (mixture of isomers)	7.30
CC(C)C[C@H](NC(=O)C(c1ccccc1)c1ccccc1)C(=O)NC(Cc1ccccc1)C(=O)C(=O)O (mixture of isomers)	6.97
CC(C)C[C@H](NC(=O)CC(c1ccccc1)c1ccccc1)C(=O)NC(Cc1ccccc1)C(=O)C(=O)O (mixture of isomers)	7.20
CC(C)[C@H](NC(=O)OCc1ccccc1)C(=O)N[C@H](C=O)Cc1ccccc1 (Cbz-Val-Phe-aldehyde)	8.00
COC(=O)C(=O)C(Cc1ccccc1)NC(=O)[C@H](CC(C)C)NC(=O)CC1c2ccccc2-c2ccccc21 (mixture of isomers)	5.92
COC(=O)C(=O)C(Cc1ccccc1)NC(=O)[C@H](CC(C)C)NC(=O)C(c1ccccc1)c1ccccc1 (mixture of isomers)	6.03
CC(C)C[C@H](NC(=O)CC12CC3CC(CC(C3)C1)C2)C(=O)NC(Cc1ccccc1)C(=O)C(=O)O (mixture of isomers)	7.39
COC(=O)C(=O)C(Cc1ccccc1)NC(=O)[C@H](CC(C)C)NC(=O)CC12CC3CC(CC(C3)C1)C2 (mixture of isomers)	6.35
